Earlier results, collected in patent US11666634B2, “Methods and compositions for management of gastrointestinal disorders” (THE BOARD OF REGENTS OF THE UNIVERSITY OF TEXAS SYSTEM, priority 2019, dated 2023).

Q: With `CC[C@H](C)[C@H](NC(=O)[C@@H]1CCCN1C(=O)CNC(=O)[C@H](Cc1ccccc1)NC(=O)[C@H](CC(N)=O)NC(=O)[C@H](CC(N)=O)NC(=O)[C@H](CO)NC(=O)[C@H](CO)NC(=O)[C@H](Cc1c[nH]cn1)NC(=O)[C@@H](NC(=O)[C@H](CC(C)C)NC(=O)[C@H](Cc1ccccc1)NC(=O)[C@H](CC(N)=O)NC(=O)[C@H](C)NC(=O)[C@H](CC(C)C)NC(=O)[C@H](CCCNC(=N)N)NC(=O)[C@H](CCC(N)=O)NC(=O)[C@@H](NC(=O)[C@H](C)NC(=O)[C@@H]1CSSC[C@H](NC(=O)[C@@H](N)CCCCN)C(=O)N[C@@H](CC(N)=O)C(=O)N[C@@H]([C@@H](C)O)C(=O)N[C@@H](C)C(=O)N[C@@H]([C@@H](C)O)C(=O)N1)[C@@H](C)O)C(C)C)C(=O)N[C@@H](CC(C)C)C(=O)N1CCC[C@H]1C(=O)N1CCC[C@H]1C(=O)N[C@H](C(=O)N[C@@H](CC(N)=O)C(=O)N[C@H](C(=O)NCC(=O)N[C@@H](CO)C(=O)N[C@@H](CC(N)=O)C(=O)N[C@H](C(=O)N[C@@H](Cc1ccc(O)cc1)C(N)=O)[C@@H](C)O)C(C)C)[C@@H](C)O` [Pramlintide, pramlintide] as the compound, how does the “gastric emptying half time” value (gastric emptying of a liquid, delayed from a half time of 30 minutes without pramlintide) read?
A: The value was 110 min.

Q: And the “rate of gastric emptying” value (result in words)?
A: Its value is “significantly decreased”.
